{"source": "patent US9340590B2", "about": "(priority 2011, dated 2016)", "assay_in_all_cases": "cell-based", "key": {"hNav1.5": {"biological_target": "hNav1.5 (Homo sapiens, UniProt Q14524)", "details": "IonWorks Quattro, read-out: IWQ Use Nav1.5"}, "hNav1.3": {"biological_target": "hNav1.3 (Homo sapiens, UniProt Q9NY46)", "sequence (Q9NY46 whole entry, looked up)": "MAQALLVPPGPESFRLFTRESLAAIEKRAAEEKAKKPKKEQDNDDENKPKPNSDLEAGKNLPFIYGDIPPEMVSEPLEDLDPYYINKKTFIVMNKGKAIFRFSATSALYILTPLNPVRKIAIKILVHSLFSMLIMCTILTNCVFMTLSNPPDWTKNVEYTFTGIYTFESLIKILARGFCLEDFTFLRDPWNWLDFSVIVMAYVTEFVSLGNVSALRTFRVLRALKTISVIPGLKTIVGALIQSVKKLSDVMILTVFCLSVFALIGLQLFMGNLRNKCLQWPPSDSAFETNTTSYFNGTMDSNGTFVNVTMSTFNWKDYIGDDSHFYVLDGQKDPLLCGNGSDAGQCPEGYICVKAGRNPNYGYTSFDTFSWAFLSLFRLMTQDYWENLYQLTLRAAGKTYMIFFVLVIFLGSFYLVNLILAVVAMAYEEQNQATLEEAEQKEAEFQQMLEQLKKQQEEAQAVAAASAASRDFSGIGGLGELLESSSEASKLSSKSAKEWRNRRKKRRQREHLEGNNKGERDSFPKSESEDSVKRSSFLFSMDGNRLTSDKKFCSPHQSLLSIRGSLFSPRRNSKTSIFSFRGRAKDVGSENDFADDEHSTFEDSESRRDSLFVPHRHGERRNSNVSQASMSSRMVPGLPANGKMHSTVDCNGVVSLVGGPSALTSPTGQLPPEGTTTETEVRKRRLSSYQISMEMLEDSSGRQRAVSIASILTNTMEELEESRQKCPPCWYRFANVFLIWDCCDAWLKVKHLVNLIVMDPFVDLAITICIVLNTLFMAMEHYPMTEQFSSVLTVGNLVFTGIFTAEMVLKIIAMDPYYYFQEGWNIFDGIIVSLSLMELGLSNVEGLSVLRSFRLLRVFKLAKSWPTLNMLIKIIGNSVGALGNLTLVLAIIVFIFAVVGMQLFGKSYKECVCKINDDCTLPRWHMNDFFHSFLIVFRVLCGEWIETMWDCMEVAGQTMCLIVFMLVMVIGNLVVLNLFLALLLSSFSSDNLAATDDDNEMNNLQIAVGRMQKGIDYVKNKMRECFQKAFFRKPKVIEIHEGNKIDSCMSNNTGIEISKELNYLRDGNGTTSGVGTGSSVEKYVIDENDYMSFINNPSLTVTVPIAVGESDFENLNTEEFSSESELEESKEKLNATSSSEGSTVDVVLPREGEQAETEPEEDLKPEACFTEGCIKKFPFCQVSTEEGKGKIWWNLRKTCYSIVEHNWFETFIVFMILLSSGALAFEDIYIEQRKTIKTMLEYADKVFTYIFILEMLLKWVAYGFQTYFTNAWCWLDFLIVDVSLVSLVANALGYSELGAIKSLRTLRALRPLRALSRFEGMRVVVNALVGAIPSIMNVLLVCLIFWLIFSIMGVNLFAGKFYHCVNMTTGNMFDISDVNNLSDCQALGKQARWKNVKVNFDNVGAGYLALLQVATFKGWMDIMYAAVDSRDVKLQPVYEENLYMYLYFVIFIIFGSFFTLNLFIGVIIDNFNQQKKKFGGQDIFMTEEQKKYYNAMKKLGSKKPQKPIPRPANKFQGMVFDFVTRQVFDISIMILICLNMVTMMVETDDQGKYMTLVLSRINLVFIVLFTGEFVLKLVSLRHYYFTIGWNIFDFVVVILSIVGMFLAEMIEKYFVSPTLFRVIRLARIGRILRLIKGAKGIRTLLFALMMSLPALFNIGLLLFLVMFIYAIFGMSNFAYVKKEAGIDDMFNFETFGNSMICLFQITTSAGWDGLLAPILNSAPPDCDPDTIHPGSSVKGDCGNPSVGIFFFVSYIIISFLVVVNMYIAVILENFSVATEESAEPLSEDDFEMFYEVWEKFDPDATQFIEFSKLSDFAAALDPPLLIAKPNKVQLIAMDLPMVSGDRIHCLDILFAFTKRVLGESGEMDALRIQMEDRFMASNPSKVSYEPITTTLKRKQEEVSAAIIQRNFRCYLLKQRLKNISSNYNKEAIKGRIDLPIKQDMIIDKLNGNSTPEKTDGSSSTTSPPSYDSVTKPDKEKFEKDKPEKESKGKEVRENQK", "details": "IonWorks Quattro, read-out: IWQ Use Nav1.3"}, "hNav1.7": {"biological_target": "hNav1.7 (Homo sapiens, UniProt Q15858)", "sequence (Q15858 whole entry, looked up)": "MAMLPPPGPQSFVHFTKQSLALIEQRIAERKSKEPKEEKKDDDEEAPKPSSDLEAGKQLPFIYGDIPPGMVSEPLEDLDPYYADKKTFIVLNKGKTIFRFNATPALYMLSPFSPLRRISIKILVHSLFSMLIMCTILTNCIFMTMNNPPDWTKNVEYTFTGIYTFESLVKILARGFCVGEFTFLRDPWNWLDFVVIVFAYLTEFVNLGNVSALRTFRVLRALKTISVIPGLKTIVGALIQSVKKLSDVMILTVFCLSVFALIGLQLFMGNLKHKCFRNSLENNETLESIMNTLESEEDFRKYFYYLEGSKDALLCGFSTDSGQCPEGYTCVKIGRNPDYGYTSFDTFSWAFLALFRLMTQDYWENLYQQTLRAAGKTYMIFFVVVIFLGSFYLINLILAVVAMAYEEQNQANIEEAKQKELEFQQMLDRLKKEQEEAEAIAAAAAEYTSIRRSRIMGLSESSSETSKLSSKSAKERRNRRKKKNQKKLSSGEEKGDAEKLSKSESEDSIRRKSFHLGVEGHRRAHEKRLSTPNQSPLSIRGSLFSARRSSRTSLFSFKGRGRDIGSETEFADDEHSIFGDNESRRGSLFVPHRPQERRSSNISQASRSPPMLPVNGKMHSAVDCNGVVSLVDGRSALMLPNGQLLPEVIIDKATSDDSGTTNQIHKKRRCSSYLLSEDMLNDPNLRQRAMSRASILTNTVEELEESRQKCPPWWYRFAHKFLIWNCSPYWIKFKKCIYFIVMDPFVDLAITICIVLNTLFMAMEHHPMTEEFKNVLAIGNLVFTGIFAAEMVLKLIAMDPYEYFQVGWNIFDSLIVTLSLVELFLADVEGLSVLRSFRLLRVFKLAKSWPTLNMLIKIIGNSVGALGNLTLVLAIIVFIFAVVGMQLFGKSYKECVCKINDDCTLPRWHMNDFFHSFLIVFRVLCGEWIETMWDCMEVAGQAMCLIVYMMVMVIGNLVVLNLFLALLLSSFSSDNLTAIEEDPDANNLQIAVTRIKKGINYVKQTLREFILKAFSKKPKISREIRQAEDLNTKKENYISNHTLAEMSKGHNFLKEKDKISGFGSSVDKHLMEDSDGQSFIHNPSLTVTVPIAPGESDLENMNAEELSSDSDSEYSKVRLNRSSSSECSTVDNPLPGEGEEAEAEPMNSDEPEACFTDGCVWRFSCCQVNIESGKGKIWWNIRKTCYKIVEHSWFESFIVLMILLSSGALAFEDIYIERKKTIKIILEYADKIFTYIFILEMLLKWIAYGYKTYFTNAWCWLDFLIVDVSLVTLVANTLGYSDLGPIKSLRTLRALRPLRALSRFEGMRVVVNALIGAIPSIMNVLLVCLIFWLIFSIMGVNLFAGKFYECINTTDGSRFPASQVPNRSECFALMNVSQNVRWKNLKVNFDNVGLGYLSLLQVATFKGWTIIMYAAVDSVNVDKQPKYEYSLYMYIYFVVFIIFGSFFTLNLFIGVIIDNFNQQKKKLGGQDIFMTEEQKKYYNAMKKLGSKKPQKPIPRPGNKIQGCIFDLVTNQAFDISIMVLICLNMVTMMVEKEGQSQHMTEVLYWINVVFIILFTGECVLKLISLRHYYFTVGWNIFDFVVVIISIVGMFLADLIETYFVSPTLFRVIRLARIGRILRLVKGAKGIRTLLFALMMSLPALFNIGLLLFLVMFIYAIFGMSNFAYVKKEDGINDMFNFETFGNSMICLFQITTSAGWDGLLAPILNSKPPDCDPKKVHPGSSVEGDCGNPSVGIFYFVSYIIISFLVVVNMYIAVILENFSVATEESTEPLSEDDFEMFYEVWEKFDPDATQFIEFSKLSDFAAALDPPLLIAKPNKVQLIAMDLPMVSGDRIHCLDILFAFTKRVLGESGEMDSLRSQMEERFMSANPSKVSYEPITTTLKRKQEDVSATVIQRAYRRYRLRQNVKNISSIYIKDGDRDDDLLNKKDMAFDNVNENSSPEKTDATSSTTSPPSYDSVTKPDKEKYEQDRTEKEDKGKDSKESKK", "type": "cell-based", "details": "IonWorks Quattro, read-out: IWQ Use Nav1.7"}, "[1]": {"details": "clamped to −110 mV, depolarized to −10 mV, 5 min after compound, n=2"}}, "note": "Read-outs that look alike come from different tables or passages of the source. Positions of bridges follow the written chain, without caps; N, C: chain ends. Non-standard residues stand in square brackets, D forms with d. Residues, ends and D or L forms follow the SMILES beside them. 2Pal = N[C@@H](Cc1ccccn1)C(=O)O", "data": [{"smiles": "CC[C@H](C)[C@@H]1NC(=O)[C@@H]2CSSC[C@@H]3NC(=O)[C@H](C(C)C)NC(=O)[C@H](CC(C)C)NC(=O)[C@H](CC(N)=O)NC(=O)[C@@H]4CCCN4C(=O)[C@H](CCCNC(=N)N)NC(=O)[C@H](CSSC[C@H](NC(=O)[C@@H](N)CC(=O)O)C(=O)N[C@@H](CC(C)C)C(=O)NCC(=O)N[C@@H](Cc4ccc(Cl)c(Cl)c4)C(=O)N[C@@H](CC(C)C)C(=O)N[C@@H](CCCNC(=N)N)C(=O)N[C@@H](CCCCN)C(=O)N2)NC(=O)[C@H](CSSC[C@@H](C(=O)N[C@@H](CCCCN)C(=O)N[C@@H](Cc2ccc(O)cc2)C(=O)N[C@H](C(=O)N[C@@H](Cc2ccccc2)C(N)=O)C(C)C)NC(=O)[C@H](Cc2c[nH]c4ccccc24)NC(=O)[C@H](CCCCN)NC(=O)[C@H](Cc2c[nH]cn2)NC(=O)[C@H]([C@@H](C)O)NC(=O)[C@H](CCCNC(=N)N)NC(=O)[C@H](CO)NC3=O)NC(=O)[C@H](CCCCN)NC(=O)[C@H](CC(=O)O)NC(=O)[C@H](CC(N)=O)NC(=O)[C@H](CC(=O)O)NC(=O)[C@@H]2CCCN2C1=O", "note": "[compound 666]", "values": [{"measurement": "IC50", "setting": "hNav1.5; use-dependent protocol, hNav1.5", "result": 4500, "unit": "nM"}, {"measurement": "IC50", "setting": "hNav1.3; use-dependent protocol, hNav1.3", "result": 16, "unit": "nM"}, {"measurement": "IC50", "setting": "hNav1.7; use-dependent protocol, hNav1.7", "result": 29, "unit": "nM"}]}, {"smiles": "CC[C@H](C)[C@@H]1NC(=O)[C@@H]2CSSC[C@@H]3NC(=O)[C@H](C(C)C)NC(=O)[C@H](CC(C)C)NC(=O)[C@H](CC(N)=O)NC(=O)[C@@H]4CCCN4C(=O)[C@H](CCCNC(=N)N)NC(=O)[C@H](CSSC[C@H](NC(=O)[C@@H](N)CC(=O)O)C(=O)N[C@@H](CC(C)C)C(=O)NCC(=O)N[C@@H](Cc4ccccc4)C(=O)N[C@@H](CCSC)C(=O)N[C@@H](CCCNC(=N)N)C(=O)N[C@@H](CCCCN)C(=O)N2)NC(=O)[C@H](CSSC[C@@H](C(=O)N[C@@H](CCCCN)C(=O)N[C@@H](Cc2ccc(O)cc2)C(=O)N[C@H](C(=O)N[C@@H](Cc2ccccc2)C(N)=O)C(C)C)NC(=O)[C@H](Cc2c[nH]c4ccccc24)NC(=O)[C@H](CCCCN)NC(=O)[C@H](Cc2ccc(O)cc2)NC(=O)[C@H]([C@@H](C)O)NC(=O)[C@H](CCCNC(=N)N)NC(=O)[C@H](CO)NC3=O)NC(=O)[C@H](CCCCN)NC(=O)[C@H](CC(=O)O)NC(=O)[C@H](CC(N)=O)NC(=O)[C@H](CC(=O)O)NC(=O)[C@@H]2CCCN2C1=O", "note": "[compound 110] (H-DCLGFMRKCIPDNDKCCRPNLVCSRTYKWCKYVF-NH2; disulfide 2-17, 9-23, 16-30)", "values": [{"measurement": "IC50", "setting": "hNav1.5; Table 23, use, […]", "result": 6390, "unit": "nM"}, {"measurement": "IC50", "setting": "hNav1.3; Table 23, use, […]", "result": 310, "unit": "nM"}, {"measurement": "IC50", "setting": "hNav1.7; Table 23, use, […]", "result": 190, "unit": "nM"}]}, {"smiles": "CC[C@H](C)[C@@H]1NC(=O)[C@@H]2CSSC[C@@H]3NC(=O)[C@H](C(C)C)NC(=O)[C@H](CC(C)C)NC(=O)[C@H](CC(N)=O)NC(=O)[C@@H]4CCCN4C(=O)[C@H](CCCNC(=N)N)NC(=O)[C@H](CSSC[C@H](NC(=O)[C@@H](N)CC(=O)O)C(=O)N[C@@H](CC(C)C)C(=O)NCC(=O)N[C@@H](C)C(=O)N[C@@H](CC(C)C)C(=O)N[C@@H](CCCNC(=N)N)C(=O)N[C@@H](CCCCN)C(=O)N2)NC(=O)[C@H](CSSC[C@@H](C(=O)N[C@@H](CCCCN)C(=O)N[C@@H](Cc2ccc(O)cc2)C(=O)N[C@H](C(=O)N[C@@H](Cc2ccccc2)C(=O)O)C(C)C)NC(=O)[C@H](Cc2c[nH]c4ccccc24)NC(=O)[C@H](CCCNC(=N)N)NC(=O)[C@H](Cc2c[nH]cn2)NC(=O)[C@H]([C@@H](C)O)NC(=O)[C@H](CCCNC(=N)N)NC(=O)[C@H](CO)NC3=O)NC(=O)[C@H](CCCCN)NC(=O)[C@H](CC(=O)O)NC(=O)[C@H](CC(C)C)NC(=O)[C@H](CC(=O)O)NC(=O)[C@@H]2CCCN2C1=O", "note": "[compound 867] (H-DCLGALRKCIPDLDKCCRPNLVCSRTHRWCKYVF-OH; disulfide 2-17, 9-23, 16-30)", "values": [{"measurement": "IC50", "setting": "hNav1.5; use-dependent block, hNav1.5", "result": "> 5000", "unit": "nM"}, {"measurement": "IC50", "setting": "hNav1.3; use-dependent block, hNav1.3", "result": 4900, "unit": "nM"}, {"measurement": "IC50", "setting": "hNav1.7; use-dependent block, hNav1.7", "result": "> 5000", "unit": "nM"}]}, {"smiles": "CC[C@H](C)[C@@H]1NC(=O)[C@@H]2CSSC[C@@H]3NC(=O)[C@H](C(C)C)NC(=O)[C@H](CC(C)C)NC(=O)[C@H](CC(N)=O)NC(=O)[C@@H]4CCCN4C(=O)[C@H](CCCNC(=N)N)NC(=O)[C@H](CSSC[C@H](NC(=O)[C@@H](N)CC(=O)O)C(=O)N[C@@H](CC(C)C)C(=O)NCC(=O)N[C@@H](Cc4ccccc4)C(=O)N[C@@H](CCSC)C(=O)N[C@@H](CCCNC(=N)N)C(=O)N[C@@H](CCCCN)C(=O)N2)NC(=O)[C@H](CSSC[C@@H](C(=O)N[C@@H](CCCCN)C(=O)N[C@@H](Cc2ccccn2)C(=O)N[C@H](C(=O)N[C@@H](Cc2ccccc2)C(N)=O)C(C)C)NC(=O)[C@H](Cc2c[nH]c4ccccc24)NC(=O)[C@H](CCCCN)NC(=O)[C@H](Cc2c[nH]cn2)NC(=O)[C@H]([C@@H](C)O)NC(=O)[C@H](CCCNC(=N)N)NC(=O)[C@H](CO)NC3=O)NC(=O)[C@H](CCCCN)NC(=O)[C@H](CC(=O)O)NC(=O)[C@H](CC(N)=O)NC(=O)[C@H](CC(=O)O)NC(=O)[C@@H]2CCCN2C1=O", "note": "[compound 384] (H-DCLGFMRKCIPDNDKCCRPNLVCSRTHKWCK[2Pal]VF-NH2; disulfide 2-17, 9-23, 16-30)", "values": [{"measurement": "IC50", "setting": "hNav1.5; Table 25, use, […]", "result": 7650, "unit": "nM"}, {"measurement": "IC50", "setting": "hNav1.3; Table 25, use, […]", "result": 660, "unit": "nM"}, {"measurement": "IC50", "setting": "hNav1.7; Table 25, use, […]", "result": 810, "unit": "nM"}]}, {"smiles": "CSCC[C@@H]1NC(=O)[C@H](Cc2ccccc2)NC(=O)CNC(=O)[C@H](CC(C)C)NC(=O)[C@@H](NC(=O)[C@@H](N)CC(=O)O)CSSC[C@@H]2NC(=O)[C@@H]3CSSC[C@@H](C(=O)N[C@@H](CCCCN)C(=O)N[C@@H](Cc4ccc(O)cc4)C(=O)N[C@H](C(=O)N[C@@H](Cc4ccccc4)C(N)=O)C(C)C)NC(=O)[C@H](Cc4c[nH]c5ccccc45)NC(=O)[C@H](CCCCN)NC(=O)[C@H](Cc4c[nH]cn4)NC(=O)[C@H]([C@@H](C)O)NC(=O)[C@H](CCCNC(=N)N)NC(=O)[C@H](CO)NC(=O)[C@H](CSSC[C@H](NC(=O)[C@H](CCCCN)NC(=O)[C@H](CCCNC(=N)N)NC1=O)C(=O)N[C@@H](Cc1ccc(C(=O)O)cc1)C(=O)N1CCC[C@H]1C(=O)N[C@@H](CC(=O)O)C(=O)N[C@@H](CC(N)=O)C(=O)N[C@@H](CC(=O)O)C(=O)N[C@@H](CCCCN)C(=O)N3)NC(=O)[C@H](C(C)C)NC(=O)[C@H](CC(C)C)NC(=O)[C@H](CC(N)=O)NC(=O)[C@@H]1CCCN1C(=O)[C@H](CCCNC(=N)N)NC2=O", "note": "[compound 310]", "values": [{"measurement": "IC50", "setting": "hNav1.5; Use", "result": 6870, "unit": "nM"}, {"measurement": "IC50", "setting": "hNav1.3; Use", "result": 230, "unit": "nM"}, {"measurement": "IC50", "setting": "hNav1.7; Use", "result": 280, "unit": "nM"}]}, {"smiles": "CC[C@H](C)[C@@H]1NC(=O)[C@@H]2CSSC[C@@H]3NC(=O)[C@H](Cc4c[nH]cn4)NC(=O)[C@H](CC(C)C)NC(=O)[C@H](CC(N)=O)NC(=O)[C@@H]4CCCN4C(=O)[C@H](CCCNC(=N)N)NC(=O)[C@H](CSSC[C@H](NC(=O)[C@@H](N)CC(=O)O)C(=O)N[C@@H](CC(C)C)C(=O)NCC(=O)N[C@@H](Cc4ccccc4)C(=O)N[C@@H](CCSC)C(=O)N[C@@H](CCCNC(=N)N)C(=O)N[C@@H](CCCCN)C(=O)N2)NC(=O)[C@H](CSSC[C@@H](C(=O)N[C@@H](CCCCN)C(=O)N[C@@H](Cc2ccc(O)cc2)C(=O)N[C@H](C(=O)N[C@@H](Cc2ccccc2)C(N)=O)C(C)C)NC(=O)[C@H](Cc2c[nH]c4ccccc24)NC(=O)[C@H](CCCCN)NC(=O)[C@H](Cc2c[nH]cn2)NC(=O)[C@H]([C@@H](C)O)NC(=O)[C@H](CCCNC(=N)N)NC(=O)[C@H](CO)NC3=O)NC(=O)[C@H](CCCCN)NC(=O)[C@H](CC(=O)O)NC(=O)[C@H](CC(N)=O)NC(=O)[C@H](CC(=O)O)NC(=O)[C@@H]2CCCN2C1=O", "note": "[compound 326] (H-DCLGFMRKCIPDNDKCCRPNLHCSRTHKWCKYVF-NH2; disulfide 2-17, 9-23, 16-30)", "values": [{"measurement": "IC50", "setting": "hNav1.5; Use", "result": 15600, "unit": "nM"}, {"measurement": "IC50", "setting": "hNav1.3; Use", "result": 100, "unit": "nM"}, {"measurement": "IC50", "setting": "hNav1.7; Use", "result": 410, "unit": "nM"}]}, {"smiles": "CC[C@H](C)[C@@H]1NC(=O)[C@@H]2CSSC[C@@H]3NC(=O)[C@H](C(C)C)NC(=O)[C@H](CC(C)C)NC(=O)[C@H](CC(N)=O)NC(=O)[C@@H]4CCCN4C(=O)[C@H](CCCNC(=N)N)NC(=O)[C@H](CSSC[C@H](NC(=O)[C@@H]4CCCN4)C(=O)N[C@@H](CC(C)C)C(=O)NCC(=O)N[C@@H](Cc4ccccc4)C(=O)N[C@@H](CCSC)C(=O)N[C@@H](CCCNC(=N)N)C(=O)N[C@@H](CCCCN)C(=O)N2)NC(=O)[C@H](CSSC[C@@H](C(=O)N[C@@H](CCCCN)C(=O)N[C@@H](Cc2ccc(O)cc2)C(=O)N[C@H](C(=O)N[C@@H](Cc2ccccc2)C(N)=O)C(C)C)NC(=O)[C@H](Cc2c[nH]c4ccccc24)NC(=O)[C@H](CCCCN)NC(=O)[C@H](Cc2c[nH]cn2)NC(=O)[C@H]([C@@H](C)O)NC(=O)[C@H](CCCNC(=N)N)NC(=O)[C@H](CO)NC3=O)NC(=O)[C@H](CCCCN)NC(=O)[C@H](CC(=O)O)NC(=O)[C@H](CC(N)=O)NC(=O)[C@H](CC(=O)O)NC(=O)[C@@H]2CCCN2C1=O", "note": "[SEQ ID NO: 190] (H-PCLGFMRKCIPDNDKCCRPNLVCSRTHKWCKYVF-NH2; disulfide 2-17, 9-23, 16-30)", "values": [{"measurement": "IC50", "setting": "hNav1.5; [1]", "result": 9730, "unit": "nM"}, {"measurement": "IC50", "setting": "hNav1.3; [1]", "result": 40, "unit": "nM"}, {"measurement": "IC50", "setting": "hNav1.7; [1]", "result": 90, "unit": "nM"}]}]}
